These results are taken from patent US20200405699A1, “TREATING SICKLE CELL DISEASE WITH A PYRUVATE KINASE R ACTIVATING COMPOUND” (FORMA Therapeutics, Inc., priority 2018, published 2020).

Holding throughout (type): biochemical
One assay deals with PKR-R510Q (Homo sapiens, UniProt P30613, R510Q). As to the kind of experiment: Luminescence Assay (Kinase Glo Plus), PKR R510Q. The note with it: read-out: AC50 (PKRR510Q). As to the method: (§1) For each tested compound, the ability to activate PKR was determined using the following Luminescence Assay. The effect of phosphorylation of adenosine-5′-diphosphate (ADP) by PKR is determined by the Kinase Glo Plus Assay (Promega) in the presence or absence of FBP (D-fructose-1,6-diphosphate; BOC Sciences, CAS: 81028-91-3) as follows. Unless otherwise indicated, all reagents are purchased from Sigma-Aldrich. All reagents are prepared in buffer containing 50 mM Tris-HCl, 100 mM KCl, 5 mM MgCl2, and 0.01% Triton X100, 0.03% BSA, and 1 mM DTT. Enzyme and PEP (phosphoenolpyruvate) are added at 2× to all wells of an assay-ready plate containing serial dilutions of test compounds or DMSO vehicle. Final enzyme concentrations for PKR(wt), PKR(R510Q), and PKR(G332S) are 0.8 nM, 0.8 nM, and 10 nM respectively. Final PEP concentration is 100 μM. The Enzyme/PEP mixture is incubated with compounds for 30 minutes at RT before the assay is initiated with the addition of 2×ADP and KinaseGloPlus. Final concentration of ADP is 100 μM. […] For assays containing FBP, that reagent is added at 30 μM upon reaction initiation. Reactions are allowed to progress for 45 minutes at RT until luminescence is recorded by the BMG PHERAstar FS Multilabel Reader. The compound is tested in triplicate at concentrations ranging from 42.5 μM to 2.2 nM in 0.83% DMSO. AC50 measurements were obtained by the standard four parameter fit algorithm of ActivityBase XE Runner (max, min, slope and AC50). The AC50 value for a compound is the concentration (μM) at which the activity along the four parameter logistic curve fit is halfway between minimum and maximum activity.
(§2) As set forth in Tables 2 and 3 below and in FIG. 1, AC50 values are defined as follows: ≤0.1 μM (+++); >0.1 μM and ≤1.0 μM (++); >1.0 μM and ≤40 μM (+); >40 μM (0).

A further assay has as its target PKR(G332S) (Homo sapiens, UniProt P30613, G332S). As to the kind of experiment: Luminescence Assay (Kinase Glo Plus), PKR G332S. To be noted: read-out: AC50 (PKRG332S). Here is the method:
as §1, §2

The target in the next assay is PKR(wt) (Homo sapiens, UniProt P30613). As to the kind of experiment: Luminescence Assay (Kinase Glo Plus), PKR wild type. Here is the method:
as §1, with “AC50 measurements were obtained by the standard four parameter fit algorithm of ActivityBase XE Runner (max, min, slope and AC50). The AC50 value for a compound is the concentration (μM) at which the activity along the four parameter logistic curve fit is halfway between minimum and maximum activity.” left out

Chain of PKR-R510Q (P30613 whole entry R510Q): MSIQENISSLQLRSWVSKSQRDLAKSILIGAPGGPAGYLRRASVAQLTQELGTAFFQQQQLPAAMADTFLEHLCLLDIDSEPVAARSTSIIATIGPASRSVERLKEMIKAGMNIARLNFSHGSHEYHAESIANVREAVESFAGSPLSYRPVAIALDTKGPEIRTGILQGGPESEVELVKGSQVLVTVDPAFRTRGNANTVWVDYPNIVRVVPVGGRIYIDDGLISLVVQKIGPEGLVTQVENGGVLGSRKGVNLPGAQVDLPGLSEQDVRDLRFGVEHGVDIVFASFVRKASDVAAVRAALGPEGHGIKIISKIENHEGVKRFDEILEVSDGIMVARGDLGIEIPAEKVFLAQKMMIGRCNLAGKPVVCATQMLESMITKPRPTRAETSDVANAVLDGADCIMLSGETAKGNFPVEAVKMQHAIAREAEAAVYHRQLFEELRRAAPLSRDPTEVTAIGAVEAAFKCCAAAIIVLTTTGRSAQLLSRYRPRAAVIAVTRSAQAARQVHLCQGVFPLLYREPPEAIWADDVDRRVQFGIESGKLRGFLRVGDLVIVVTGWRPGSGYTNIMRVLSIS
Chain of PKR(G332S) (P30613 whole entry G332S): as the sequence (P30613 whole entry R510Q) above, with G332S, Q510R counted along it
Chain of PKR(wt) (P30613 whole entry): as the sequence (P30613 whole entry R510Q) above, with Q510R counted along it

For `O=C([C@H](CO)c1ccccc1)N1CC2=C(C1)CN(C(=O)[C@H](CO)c1ccccc1)C2` [Compound 7], the AC50 at PKR-R510Q and on PKR(G332S) was greater than 40 µM each time.
As to `O=C(c1cn[nH]c1-c1ccccc1)N1CC2=C(C1)CN(S(=O)(=O)c1ccc3c(c1)OCCO3)C2` [Compound 8], the half-maximal activity concentration (AC50) at PKR-R510Q and at PKR(G332S) was greater than 40 µM each time.
Turning to `O=C([C@H](O)c1cccnc1)N1CC2=C(C1)CN(S(=O)(=O)c1cnc3c(c1)OCCO3)C2` [Compound 6], the concentration at half-maximal activity (AC50) on PKR-R510Q was 1 to 40 µM; on PKR(G332S) it was 0.1 to 1 µM.
As for `O=C([C@@H](CO)c1ccccc1)N1CC2=C(C1)CN(S(=O)(=O)c1cnc3c(c1)OCCO3)C2` (single isomer, unassigned) [Compound 2], the AC50 at PKR-R510Q, on PKR(G332S) and on PKR(wt) was 1 to 40 µM in each case.
